Reference: patent publication US10934310B2, “Inhibitors of Bruton's tyrosine kinase and method of their use” (JANSSEN PHARMACEUTICA NV, priority 2015, dated 2021)

Each molecule was assayed against unphosphorylated-BTK kinase domain (UP-BTK), GST-tagged human BTK (389-659aa) (Homo sapiens (Human), UniProt Q06187) (assay: BTK Kinase Lanthascreen Binding Assay). Details: Lanthascreen binding, 60 minutes incubation; pIC50 = negative log of the IC50 in molar.
Protocol: BTK Kinase Lanthascreen Binding Assay:
A BTK kinase lanthascreen binding assay monitors compound binding to unphosphorylated-BTK kinase domain (UP-BTK), by competing with a fluorescent labeled tracer. […] Data were analyzed using Xlfit™ version 5.3 from ID Business Solutions (Guildford), Microsoft Excel add-in. pIC50 refers to the negative log of the IC50 in molar.

Sequence of unphosphorylated-BTK kinase domain (UP-BTK), GST-tagged human BTK (389-659aa) (Q06187 389-659): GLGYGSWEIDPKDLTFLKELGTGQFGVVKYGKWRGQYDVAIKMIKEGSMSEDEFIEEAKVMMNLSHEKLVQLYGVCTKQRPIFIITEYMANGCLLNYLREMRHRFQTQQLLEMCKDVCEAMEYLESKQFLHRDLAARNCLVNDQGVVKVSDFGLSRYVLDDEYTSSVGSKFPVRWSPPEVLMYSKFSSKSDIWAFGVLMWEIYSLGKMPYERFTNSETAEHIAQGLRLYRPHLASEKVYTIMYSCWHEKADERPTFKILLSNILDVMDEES

Going from `C=CC(=O)N[C@H]1CCC[C@H]1NC(=O)c1sc2nccc3c2c1NC(=O)N3c1ccc(Oc2ccccn2)cc1` [Example 437, N-((1R,2S)-2-Acrylamidocyclopentyl)-4-oxo-5-(4-(pyridin-2-yloxy)phenyl)-4,5-dihydro-3H-1-thia-3,5,8-triazaacenaphthylene-2-carboxamide] to `C=CC(=O)N[C@H]1CCCC[C@H]1NC(=O)c1sc2nccc3c2c1NC(=O)N3c1ccc(Oc2ccccn2)cc1` [Example 442, N-((1R,2S)-2-Acrylamidocyclohexyl)-4-oxo-5-(4-(pyridin-2-yloxy)phenyl)-4,5-dihydro-3H-1-thia-3,5,8-triazaacenaphthylene-2-carboxamide], the “BTK_I_binding pIC50” value falls from 8.38 to 6.84.

First: C=CC(=O)N[C@H]1CCC[C@H]1NC(=O)c1sc2nccc3c2c1NC(=O)N3c1cccc(C(C)C)c1 [Example 438, N-((1R,2S)-2-Acrylamidocyclopentyl)-5-(3-isopropylphenyl)-4-oxo-4,5-dihydro-3H-1-thia-3,5,8-triazaacenaphthylene-2-carboxamide]
Second: C=CC(=O)N[C@H]1CCC[C@H]1NC(=O)c1sc2nccc3c2c1NC(=O)N3c1cnc(Oc2cccc(C)n2)cc1C [Example 483, N-((1R,2S)-2-Acrylamidocyclopentyl)-5-(4-methyl-6-((6-methylpyridin-2-yl)oxy)pyridin-3-yl)-4-oxo-4,5-dihydro-3H-1-thia-3,5,8-triazaacenaphthylene-2-carboxamide]
The “BTK_I_binding pIC50” value of the first is higher: 8.02 for the first, 7.49 for the second.

`Cc1cc(OC(C)C)ccc1N1C(=O)Nc2c(C(=O)N[C@@H]3CCC[C@@H]3N)sc3nccc1c23` [Example 453, N-((1R,2S)-2-Aminocyclopentyl)-5-(4-isopropoxy-2-methylphenyl)-4-oxo-4,5-dihydro-3H-1-thia-3,5,8-triazaacenaphthylene-2-carboxamide] and `CC(=O)N[C@@H]1CC[C@H](NC(=O)c2sc3nccc4c3c2NC(=O)N4c2ccc(OC(C)C)cc2C)C1` [Example 454, N-((1S,3R)-3-Acetamidocyclopentyl)-5-(4-isopropoxy-2-methylphenyl)-4-oxo-4,5-dihydro-3H-1-thia-3,5,8-triazaacenaphthylene-2-carboxamide] are within 0.2 log units of each other in “BTK_I_binding pIC50” value: 6.32 for the first, 6.21 for the second.

First: N[C@@H]1CCCC[C@@H]1NC(=O)c1sc2nccc3c2c1NC(=O)N3c1ccc(Oc2ccccc2)cc1 [Example 457, N-((1S,2R)-2-Aminocyclohexyl)-4-oxo-5-(4-phenoxyphenyl)-4,5-dihydro-3H-1-thia-3,5,8-triazaacenaphthylene-2-carboxamide]
Second: O=C(NC1CCCCC1)c1sc2nccc3c2c1NC(=O)N3c1ccc(Oc2ccccc2)cc1 [Example 463, N-Cyclohexyl-4-oxo-5-(4-phenoxyphenyl)-4,5-dihydro-3H-1-thia-3,5,8-triazaacenaphthylene-2-carboxamide]
The “BTK_I_binding pIC50” value of the first is lower: 5.81 for the first, 6.22 for the second.

Going from `C=CC(=O)N[C@H]1CCC[C@@H]1NC(=O)c1sc2nccc3c2c1NC(=O)N3c1ccc(Oc2ccccc2)cc1C` [Example 458, N-((1S,2S)-2-Acrylamidocyclopentyl)-5-(2-methyl-4-phenoxyphenyl)-4-oxo-4,5-dihydro-3H-1-thia-3,5,8-triazaacenaphthylene-2-carboxamide] to `C=CC(=O)N[C@@H]1CCC[C@@H]1NC(=O)c1sc2nccc3c2c1NC(=O)N3c1ccc(Oc2ccccc2)cc1C` [Example 459, N-((1S,2R)-2-Acrylamidocyclopentyl)-5-(2-methyl-4-phenoxyphenyl)-4-oxo-4,5-dihydro-3H-1-thia-3,5,8-triazaacenaphthylene-2-carboxamide], the “BTK_I_binding pIC50” value falls from 7.53 to 7.13.

First: Cc1cc(Oc2cccc(COc3ccccc3C#N)c2)ccc1N1C(=O)Nc2c(C(=O)NC3CCCCC3)sc3nccc1c23 [Example 460, 5-(4-(3-((2-Cyanophenoxy)methyl)phenoxy)-2-methylphenyl)-N-cyclohexyl-4-oxo-4,5-dihydro-3H-1-thia-3,5,8-triazaacenaphthylene-2-carboxamide]
Second: Cc1cc(Oc2cccc(COc3ccccc3C#N)c2)ccc1N1C(=O)Nc2c(NC(=O)C3CC3)sc3nccc1c23 [Example 461, N-(5-(4-(3-((2-Cyanophenoxy)methyl)phenoxy)-2-methylphenyl)-4-oxo-4,5-dihydro-3H-1-thia-3,5,8-triazaacenaphthylen-2-yl)cyclopropanecarboxamide]
The “BTK_I_binding pIC50” value of the first is higher: 6.78 for the first, 6.46 for the second.

First: Cc1cc(Oc2ccccc2)ccc1N1C(=O)Nc2c(C(=O)NC3CCCCC3)sc3nccc1c23 [Example 462, N-Cyclohexyl-5-(2-methyl-4-phenoxyphenyl)-4-oxo-4,5-dihydro-3H-1-thia-3,5,8-triazaacenaphthylene-2-carboxamide]
Second: C=CC(=O)N[C@H]1CCC[C@H]1NC(=O)c1sc2nccc3c2c1NC(=O)N3c1ccc(Oc2cncnc2)cc1C [Example 482, N-((1R,2S)-2-Acrylamidocyclopentyl)-5-(2-methyl-4-(pyrimidin-5-yloxy)phenyl)-4-oxo-4,5-dihydro-3H-1-thia-3,5,8-triazaacenaphthylene-2-carboxamide]
The “BTK_I_binding pIC50” value of the first is lower: 6.33 for the first, 7.79 for the second.

First: C=CC(=O)N[C@H]1CCC[C@H]1NC(=O)c1sc2nccc3c2c1NC(=O)N3c1cnc(Oc2ncccn2)cc1C [Example 465, N-((1R,2S)-2-Acrylamidocyclopentyl)-5-(4-methyl-6-(pyrimidin-2-yloxy)pyridin-3-yl)-4-oxo-4,5-dihydro-3H-1-thia-3,5,8-triazaacenaphthylene-2-carboxamide]
Second: C=CC(=O)N[C@H]1CCC[C@H]1NC(=O)c1sc2nccc3c2c1NC(=O)N3c1ccc(Oc2ncccn2)nc1C [Example 468, N-((1R,2S)-2-Acrylamidocyclopentyl)-5-(2-methyl-6-(pyrimidin-2-yloxy)pyridin-3-yl)-4-oxo-4,5-dihydro-3H-1-thia-3,5,8-triazaacenaphthylene-2-carboxamide]
The “BTK_I_binding pIC50” value of the first is higher: 7.25 for the first, 6.52 for the second.

First: C=CC(=O)N[C@H]1CCC[C@H]1NC(=O)c1sc2nccc3c2c1NC(=O)N3c1ccc(Oc2cccnn2)cn1 [Example 476, N-((1R,2S)-2-Acrylamidocyclopentyl)-4-oxo-5-(5-(pyridazin-3-yloxy)pyridin-2-yl)-4,5-dihydro-3H-1-thia-3,5,8-triazaacenaphthylene-2-carboxamide]
Second: C=CC(=O)N[C@H]1CCC[C@H]1NC(=O)c1sc2nccc3c2c1NC(=O)N3c1ccc(Oc2ccccn2)cn1 [Example 480, N-((1R,2S)-2-Acrylamidocyclopentyl)-4-oxo-5-(5-(pyridin-2-yloxy)pyridin-2-yl)-4,5-dihydro-3H-1-thia-3,5,8-triazaacenaphthylene-2-carboxamide]
The “BTK_I_binding pIC50” value of the first is lower: 6.20 for the first, 7.59 for the second.

First: C=CC(=O)N[C@H]1CCC[C@H]1NC(=O)c1sc2nccc3c2c1NC(=O)N3c1ccc(-n2ccccc2=O)nc1C [Example 477, N-((1R,2S)-2-Acrylamidocyclopentyl)-5-(6′-methyl-2-oxo-2H-[1,2′-bipyridin]-5′-yl)-4-oxo-4,5-dihydro-3H-1-thia-3,5,8-triazaacenaphthylene-2-carboxamide]
Second: C=CC(=O)N[C@H]1CCC[C@H]1NC(=O)c1sc2nccc3c2c1NC(=O)N3c1ccc(Oc2ccc(C)nc2)cn1 [Example 481, N-((1R,2S)-2-Acrylamidocyclopentyl)-5-(5-((6-methylpyridin-3-yl)oxy)pyridin-2-yl)-4-oxo-4,5-dihydro-3H-1-thia-3,5,8-triazaacenaphthylene-2-carboxamide]
The “BTK_I_binding pIC50” value of the first is lower: 6.85 for the first, 7.33 for the second.

With `C=CC(=O)N[C@H]1CCC[C@H]1NC(=O)c1sc2nccc3c2c1NC(=O)N3c1ccc(Oc2ncccn2)cn1` [Example 484, N-((1R,2S)-2-Acrylamidocyclopentyl)-4-oxo-5-(5-(pyrimidin-2-yloxy)pyridin-2-yl)-4,5-dihydro-3H-1-thia-3,5,8-triazaacenaphthylene-2-carboxamide] the “BTK_I_binding pIC50” value was 6.93.

Same assay, conditions: read-out: BTK_I_binding pIC50 (converted)

`CC(C)c1cccc(N2C(=O)Nc3c(C(=O)N[C@@H]4CCC[C@@H]4N)sc4nccc2c34)c1` [Example 455, N-((1R,2S)-2-Aminocyclopentyl)-5-(3-isopropylphenyl)-4-oxo-4,5-dihydro-3H-1-thia-3,5,8-triazaacenaphthylene-2-carboxamide] and `Cc1cc(OC(C)C)ccc1N1C(=O)Nc2c(C(=O)N[C@@H]3CCC[C@H]3O)sc3nccc1c23` [Example 456, N-((1R,2R)-2-Hydroxycyclopentyl)-5-(4-isopropoxy-2-methylphenyl)-4-oxo-4,5-dihydro-3H-1-thia-3,5,8-triazaacenaphthylene-2-carboxamide] cannot be ordered by IC50: greater than 1000 nM for the first, greater than 1000 nM for the second.

Going from `C=CC(=O)N[C@H]1CCCC[C@H]1NC(=O)c1sc2nccc3c2c1NC(=O)N3c1cnc(Oc2cccnn2)cc1C` [Example 467, N-((1R,2S)-2-Acrylamidocyclohexyl)-5-(4-methyl-6-(pyridazin-3-yloxy)pyridin-3-yl)-4-oxo-4,5-dihydro-3H-1-thia-3,5,8-triazaacenaphthylene-2-carboxamide] to `C=CC(=O)N[C@H]1CCC[C@H]1NC(=O)c1sc2nccc3c2c1NC(=O)N3c1ccc(Oc2ccccn2)nc1C` [Example 478, N-((1R,2S)-2-Acrylamidocyclopentyl)-5-(2-methyl-6-(pyridin-2-yloxy)pyridin-3-yl)-4-oxo-4,5-dihydro-3H-1-thia-3,5,8-triazaacenaphthylene-2-carboxamide], the IC50 falls from greater than 1000 nM to 22.9 nM.

`C=CC(=O)N[C@H]1CCC[C@H]1NC(=O)c1sc2nccc3c2c1NC(=O)N3c1ccc(Oc2cccc(C)n2)cn1` [Example 479, N-((1R,2S)-2-Acrylamidocyclopentyl)-5-(5-((6-methylpyridin-2-yl)oxy)pyridin-2-yl)-4-oxo-4,5-dihydro-3H-1-thia-3,5,8-triazaacenaphthylene-2-carboxamide] was tested, and the IC50 was 28.8 nM.
